# Data as given in patent US20240199597A1, “SMALL MOLECULES FOR THE TREATMENT OF KINASE-RELATED DISEASES” (Athos Therapeutics, Inc., priority 2021, published 2024).
# How the values were obtained:
# Kasumi-3 = assay: Cancer cytotoxicity assay (Real-Time-Glo cell viability), Kasumi-3; format: cell-based; conditions: leukemia cell, 72 hr
# Method: (§1) The cytotoxicity of Compounds 1, 3, 4, 6, 7, 8, 9, 10, 12 and 13 against cancer cell lines was determined. To determine the optimal plating density for cell viability assays, for each cell line, cells were counted and diluted to final densities of 2.5, 5, 10 and 20 thousand per 100 μL of their respective growth media per well in 96 well plates. The Promega Real-Time-Glo cell viability kit was used to determine the optimal concentration for cell plating so that each cell line would be within the linear part of its growth curve after 72 hrs in culture. For the determination of test compound IC50s, different cancer cell lines were plated in 96 well plates in the pre-determined optimal density for each cell line. Test compounds were then added at different concentrations for the creation of six-point curve and cell density was determined using the Promega Real-Time-Glo cell viability kit after 24, 48, and 72 hrs in culture.
# HCT-116 = assay: Cancer cytotoxicity assay (Real-Time-Glo cell viability), HCT-116; format: cell-based; conditions: Homo sapiens, colorectal cancer cell line, 72 hr
# Method: as §1
# MV4-11 = assay: Cancer cytotoxicity assay (Real-Time-Glo cell viability), MV4-11; format: cell-based; conditions: Homo sapiens, leukemia cell, 72 hr
# Method: as §1
# HT-29 = assay: Cancer cytotoxicity assay (Real-Time-Glo cell viability), HT-29; format: cell-based; conditions: Homo sapiens, colorectal cancer cell line, 72 hr
# Method: as §1
# OV-90 = assay: Cancer cytotoxicity assay (Real-Time-Glo cell viability), OV-90; format: cell-based; conditions: Homo sapiens, ovarian cancer cell line, 72 hr
# Method: as §1
# A-498 = assay: Cancer cytotoxicity assay (Real-Time-Glo cell viability), A-498; format: cell-based; conditions: Homo sapiens, A498; kidney cancer, 72 hr
# Method: as §1
# Kasumi-1 = assay: Cancer cytotoxicity assay (Real-Time-Glo cell viability), Kasumi-1; format: cell-based; conditions: Homo sapiens, leukemia cell, 72 hr
# Method: as §1
# SKOV-3 = assay: Cancer cytotoxicity assay (Real-Time-Glo cell viability), SKOV-3; format: cell-based; conditions: Homo sapiens, SK-OV-3; ovarian cancer cell line, 72 hr
# Method: as §1
# 786-O = assay: Cancer cytotoxicity assay (Real-Time-Glo cell viability), 786-O; format: cell-based; conditions: Homo sapiens, 786-0; kidney cancer, 72 hr
# Method: as §1
# PLK4 = target: T1, PLK4 (Homo sapiens, UniProt O00444); assay: Kinase inhibition assay (Eurofins DiscoverX KinaseProfiler / KdElect), PLK4; format: biochemical
# T1 construct: purchased Eurofins DiscoverX (contract service)
# T1 sequence (O00444 1-970): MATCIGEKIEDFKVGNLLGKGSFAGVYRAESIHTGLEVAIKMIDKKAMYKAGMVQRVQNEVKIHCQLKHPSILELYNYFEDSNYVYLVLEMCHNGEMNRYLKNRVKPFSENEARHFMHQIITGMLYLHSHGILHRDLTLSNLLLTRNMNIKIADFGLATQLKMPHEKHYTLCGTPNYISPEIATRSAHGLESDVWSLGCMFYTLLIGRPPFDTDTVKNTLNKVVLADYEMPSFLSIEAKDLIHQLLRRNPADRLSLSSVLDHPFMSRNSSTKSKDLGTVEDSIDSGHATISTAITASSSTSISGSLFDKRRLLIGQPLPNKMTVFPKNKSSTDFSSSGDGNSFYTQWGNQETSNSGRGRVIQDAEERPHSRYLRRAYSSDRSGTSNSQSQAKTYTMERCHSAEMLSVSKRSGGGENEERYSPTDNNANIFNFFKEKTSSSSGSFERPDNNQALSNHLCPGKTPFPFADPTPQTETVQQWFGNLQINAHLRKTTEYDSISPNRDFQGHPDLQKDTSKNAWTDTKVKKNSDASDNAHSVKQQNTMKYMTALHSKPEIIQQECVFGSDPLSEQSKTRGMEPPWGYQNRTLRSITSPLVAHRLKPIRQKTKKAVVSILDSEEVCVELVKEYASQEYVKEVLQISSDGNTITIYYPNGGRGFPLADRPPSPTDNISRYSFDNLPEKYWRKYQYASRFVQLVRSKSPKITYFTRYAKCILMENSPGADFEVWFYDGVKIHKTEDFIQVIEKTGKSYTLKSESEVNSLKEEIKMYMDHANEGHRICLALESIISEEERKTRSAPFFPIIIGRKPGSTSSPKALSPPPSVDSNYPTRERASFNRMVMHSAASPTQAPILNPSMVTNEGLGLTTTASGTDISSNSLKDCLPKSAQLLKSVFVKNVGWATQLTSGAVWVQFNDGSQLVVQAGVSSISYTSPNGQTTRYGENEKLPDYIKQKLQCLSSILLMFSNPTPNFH
# Method: (§2) The activity of Compounds 1, 3, 4, 6, 7, 8, 9, 10 and 13 in inhibiting CLK1, CLK4, PLK4, and FLT3 kinases was determined. Stock solutions of the compounds being evaluated were prepared. The IC50 values were determined by the Eurofins DiscoverX services using either the KinaseProfiler or the KdElect kinase activity detection assays.
# CLK1 = target: T2, CLK1 (Homo sapiens, UniProt P49759); assay: Kinase inhibition assay (Eurofins DiscoverX KinaseProfiler / KdElect), CLK1; format: biochemical
# T2 construct: purchased Eurofins DiscoverX (contract service)
# T2 sequence (P49759 whole entry): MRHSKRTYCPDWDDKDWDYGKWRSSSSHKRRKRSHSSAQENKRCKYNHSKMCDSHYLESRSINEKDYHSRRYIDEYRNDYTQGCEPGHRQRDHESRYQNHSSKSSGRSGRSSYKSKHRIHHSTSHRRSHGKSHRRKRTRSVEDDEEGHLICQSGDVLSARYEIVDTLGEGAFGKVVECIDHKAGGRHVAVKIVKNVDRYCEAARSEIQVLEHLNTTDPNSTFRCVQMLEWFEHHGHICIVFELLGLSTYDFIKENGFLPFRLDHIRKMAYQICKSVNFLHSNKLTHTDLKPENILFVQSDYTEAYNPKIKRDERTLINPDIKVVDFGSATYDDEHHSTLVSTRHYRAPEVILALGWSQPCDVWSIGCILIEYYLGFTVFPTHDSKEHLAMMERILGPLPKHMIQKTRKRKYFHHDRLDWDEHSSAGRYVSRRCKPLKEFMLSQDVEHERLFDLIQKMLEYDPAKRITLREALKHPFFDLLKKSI
# Method: as §2
# CLK4 = target: T3, CLK4 (Homo sapiens, UniProt Q9HAZ1); assay: Kinase inhibition assay (Eurofins DiscoverX KinaseProfiler / KdElect), CLK4; format: biochemical
# T3 construct: purchased Eurofins DiscoverX (contract service)
# T3 sequence (Q9HAZ1 whole entry): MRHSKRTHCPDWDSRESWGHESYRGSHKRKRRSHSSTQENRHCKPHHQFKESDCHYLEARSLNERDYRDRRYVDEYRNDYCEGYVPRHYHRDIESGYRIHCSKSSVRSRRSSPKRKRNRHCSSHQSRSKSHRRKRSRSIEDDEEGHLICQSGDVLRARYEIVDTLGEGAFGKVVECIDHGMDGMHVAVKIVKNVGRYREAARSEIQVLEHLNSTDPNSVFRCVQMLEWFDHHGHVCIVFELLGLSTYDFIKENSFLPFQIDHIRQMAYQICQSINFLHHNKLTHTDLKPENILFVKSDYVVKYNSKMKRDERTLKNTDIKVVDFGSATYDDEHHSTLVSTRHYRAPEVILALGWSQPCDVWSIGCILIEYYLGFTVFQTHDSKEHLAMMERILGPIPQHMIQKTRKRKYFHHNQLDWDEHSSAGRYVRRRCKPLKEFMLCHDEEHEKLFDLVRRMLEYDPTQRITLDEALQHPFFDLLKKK
# Method: as §2
# FLT3 = target: T4, FLT3 (Homo sapiens, UniProt P36888); assay: Kinase assay (Eurofins DiscoverX KinaseProfiler / KdElect), FLT3; format: binding; conditions: read-out: FLT3 (Kd50 nM)
# T4 construct: purchased Eurofins DiscoverX (contract service)
# T4 sequence (P36888 27-993): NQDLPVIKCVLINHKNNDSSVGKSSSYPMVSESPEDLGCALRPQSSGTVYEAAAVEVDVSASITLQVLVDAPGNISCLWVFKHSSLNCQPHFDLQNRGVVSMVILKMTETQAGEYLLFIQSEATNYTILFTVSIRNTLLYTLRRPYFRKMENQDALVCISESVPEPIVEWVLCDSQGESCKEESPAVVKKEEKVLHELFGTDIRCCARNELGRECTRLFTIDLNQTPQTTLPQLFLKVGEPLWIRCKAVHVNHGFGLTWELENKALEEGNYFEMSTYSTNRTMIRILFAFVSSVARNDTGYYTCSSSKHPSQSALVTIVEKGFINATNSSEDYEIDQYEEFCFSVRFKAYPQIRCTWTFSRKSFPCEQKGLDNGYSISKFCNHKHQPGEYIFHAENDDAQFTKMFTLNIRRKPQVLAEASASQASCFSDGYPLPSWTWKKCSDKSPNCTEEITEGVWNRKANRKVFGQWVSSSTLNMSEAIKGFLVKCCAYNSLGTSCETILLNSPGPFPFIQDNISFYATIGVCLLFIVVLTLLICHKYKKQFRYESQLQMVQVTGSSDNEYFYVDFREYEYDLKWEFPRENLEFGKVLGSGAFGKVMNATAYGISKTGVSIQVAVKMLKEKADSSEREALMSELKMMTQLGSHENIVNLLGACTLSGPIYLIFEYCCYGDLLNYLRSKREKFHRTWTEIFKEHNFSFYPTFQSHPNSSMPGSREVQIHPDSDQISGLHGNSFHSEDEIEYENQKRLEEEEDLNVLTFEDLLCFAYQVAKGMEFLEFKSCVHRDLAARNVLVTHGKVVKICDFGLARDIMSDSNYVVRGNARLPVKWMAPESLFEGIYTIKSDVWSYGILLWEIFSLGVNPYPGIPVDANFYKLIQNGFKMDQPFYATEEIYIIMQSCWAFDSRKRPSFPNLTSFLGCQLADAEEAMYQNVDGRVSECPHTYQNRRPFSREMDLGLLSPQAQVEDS
# Method: Stock solutions of the compounds being evaluated were prepared. The IC50 values were determined by the Eurofins DiscoverX services using either the KinaseProfiler or the KdElect kinase activity detection assays.
IC50 (PLK4) [nM],IC50 (CLK1) [nM],IC50 (CLK4) [nM],Kd (FLT3) [µM],SMILES,IC50 (Kasumi-3) [nM],IC50 (HCT-116) [nM],IC50 (MV4-11) [nM],IC50 (HT-29) [nM],IC50 (OV-90) [nM],IC50 (A-498) [nM],IC50 (Kasumi-1) [nM],IC50 (SKOV-3) [nM],IC50 (786-O) [nM]
,,,,"COc1cc2c(Nc3nnc(C)s3)nc(N3CCC(F)(F)CC3)nc2cc1OCCCN1CCCC1 [Compound 12, N-(2-(4,4-difluoropiperidin-1-yl)-6-methoxy-7-(3-(pyrrolidin-1-yl)propoxy)quinazolin-4-yl)-5-methyl-1,3,4-thiadiazol-2-amine]",1000 to 5000,1000 to 5000,1000 to 5000,1000 to 5000,1000 to 5000,1000 to 5000,1000 to 5000,1000 to 5000,5000 to 10000
< 1000,< 1000,< 1000,,"COc1cc2c(Nc3cc(C4CC4)[nH]n3)nc(N3CCC(F)(F)CC3)nc2cc1OCCCN1CCCC1 [Compound 6, N-(5-cyclopropyl-1H-pyrazol-3-yl)-2-(4,4-difluoropiperidin-1-yl)-6-methoxy-7-(3-(pyrrolidin-1-yl)propoxy)quinazolin-4-amine]",1000 to 5000,1000 to 5000,< 1000,1000 to 5000,1000 to 5000,1000 to 5000,1000 to 5000,1000 to 5000,1000 to 5000
> 10000,< 1000,< 1000,> 10,"COc1cc2c(Nc3cc(C(C)(C)C)[nH]n3)nc(N3CCC(F)(F)CC3)nc2cc1OCCCN1CCCC1 [Compound 7, N-(5-(tert-butyl)-1H-pyrazol-3-yl)-2-(4,4-difluoropiperidin-1-yl)-6-methoxy-7-(3-(pyrrolidin-1-yl)propoxy)quinazolin-4-amine]",1000 to 5000,1000 to 5000,1000 to 5000,1000 to 5000,1000 to 5000,1000 to 5000,1000 to 5000,1000 to 5000,1000 to 5000
> 10000,1000 to 5000,5000 to 10000,5 to 10,"COc1cc2c(Nc3cc(C)[nH]n3)nc(N3CCC3)nc2cc1OCCCN1CCCC1 [Compound 4, 2-(Azetidin-1-yl)-6-methoxy-N-(5-methyl-1H-pyrazol-3-yl)-7-(3-(pyrrolidin-1-yl)propoxy)quinazolin-4-amine]",> 10000,1000 to 5000,5000 to 10000,> 10000,> 10000,> 10000,> 10000,> 10000,> 10000
1000 to 5000,< 1000,< 1000,,"COc1cc2c(Nc3cc(C4CCC4)[nH]n3)nc(N3CCC(F)(F)CC3)nc2cc1OCCCN1CCCC1 [Compound 10, N-(5-cyclobutyl-1H-pyrazol-3-yl)-2-(4,4-difluoropiperidin-1-yl)-6-methoxy-7-(3-(pyrrolidin-1-yl)propoxy)quinazolin-4-amine]",< 1000,1000 to 5000,< 1000,1000 to 5000,1000 to 5000,1000 to 5000,< 1000,1000 to 5000,1000 to 5000
